From patent US20120065203A1, “Methods of Reducing Serum Glucose and Triglyceride Levels and for Inhibiting Angiogenesis Using Substituted Indolealkanoic Acids” (The Institute for Pharmaceutical Discovery, LLC, priority 1998, published 2012)
Read-outs that look alike come from different tables or passages of the source.

How the values were obtained:
[1] = tested on: STZ treated diabetic minipigs; assay: Wound healing in STZ treated diabetic minipigs; format: in vivo, minipig; conditions: STZ diabetic minipigs with wounds, compared with untreated controls
Description: These animals are compared with control STZ diabetic minipigs also having wounds but that are not treated with the compound.

[2] = tested on: streptozotocin-induced diabetic rats; conditions: STZ diabetic rats, 10 mg/kg daily by gavage, listed as test compound
Experimental: Diabetes is induced in animals as follows: male Sprague-Dawley rats (150 g), supplied by Harlan Teklad (Madison, Wis.), are allowed to acclimate for 1 week and water is supplied ad libitum. […] STZ, 40 mg/kg, is prepared in 0.03 M citrate buffer, pH 4.5 and administered intraperitoneally after a 24-hr fast. Control animals receive citrate buffer.
Two hours after STZ injection, food is returned. Two days following STZ injection, blood glucose is measured and animals with <300 mg/dL are eliminated. Animals with blood glucose levels ≧300 mg/dL are randomized into diabetic control and treated groups.
In all, three groups of animals are monitored and compared. The groups comprise a (nondiabetic) control group (n=5); an untreated diabetic (control) group (n=7); and treated diabetic group (n=7). […] The nondiabetic and diabetic control groups are administered vehicle.
After the final dose (Day 8), all groups of animals are fasted for 4 hours and anesthetized with CO2, and blood is collected by cardiac puncture into EDTA tubes. The plasma is separated from the red blood cells by centrifugation. Plasma triglyceride levels are quantitated on an automated COBAS chemistry system utilizing the Roche reagent for Triglycerides (Cat #44119). This assay is a standard spectrophotometric enzyme assay that uses a Trinder reaction to measure the final product (Trinder, P., Ann Clin Biochem 6: […], 1969). […]

diabetic (db/db) mice = conditions: for mean percent change in glucose (lowering): after four weeks
Experimental: The mice are obese, extremely hyperglycemic and also hyperinsulinemic.
Male db/db mice (8 weeks old) were obtained from Jackson Laboratories and were allowed to acclimate for 1 week before the experiment commenced. A sample of blood was collected from the tail after which plasma glucose was isolated by centrifigation and the glucose concentration was measured in the plasma enzymatically on the COBAS automated clinical_analyzer equipped with a glucose kit that utilized hexokinas to quantitate the amount of glucose in a sample (Roche Diagnostic Systems, kit #47382). Mice with the lowest plasma glucose values were removed from the study and the remaining mice were randomized according to their individual plasma glucose values into 3 treatment groups (n=12 per group), control untreated db/db mice, 100 mg/kg/d compound treated db/db mice and 300_mg/kg/d compound treated db/db mice.
Treatment with the compound was carried out for 4 weeks during which time blood glucose levels were measured weekly from the tail using the One Touch II blood glucose meter (Lifescan, Inc). The blood glucose values of mice in the compound treated groups was compared to the blood glucose values of mice from the control untreated group by an analysis of variance followed by Dunett's Comparison Test (one-tailed).

[3] = target: human aldose reductase (hALR2) (Homo sapiens, UniProt P15121); assay: Inhibition of human aldose reductase (hALR2); format: biochemical
Experimental: Representative compounds of the invention were tested for their potency, selectivity and efficacy as inhibitors of human aldose reductase.

Description for rat aortic ring: Rats (less than 6 weeks old, approx 150 grams) are individually sacrificed via carbon dioxide asphyxiation. The abdomen and thorax are opened along the midline with scissors using known sterile techniques. The animals are placed recumbent on their right side, to allow displacement of the viscera. The abdominal and thoracic sections of the aorta are carefully separated from the dorsum by dissection along the longitudinal axis of the aorta. The isolated aorta is placed in a petri dish containing sterile, ice cold Hanks' balanced salt solution (Gibco BRL-Life Technologies, Rockville, Md.) for further micro-dissection under a dissecting microscope. The lumenal content of the aorta is dislodged by injection with Hanks, balanced salt solution via a syringe. Adherent adipose, loose connective tissue and segments of intercostal arteries are trimmed from the exterior of the aorta using sterile microsurgical instruments. The aorta is transferred to a clean petri dish containing fresh Hanks' balanced salt solution and the entire aorta is sectioned into 1 to 2 mm thick rings. The two end rings and any other rings which appear damaged are discarded. The aorta is maintained submerged in Hanks' balanced salt solution on ice while plating onto a 48-well plate.
Using a 48-well tissue culture plate, which is chilled on ice, in a tissue culture hood a 120 microliters of thawed Matrigel® (Becton Dickinson Labware, Bedford, Mass.) is plated onto each well using a sterile pipet tip. The Matrigel® is solidified by placing the culture plate for 30 minutes in a 37° C. humidified tissue culture incubator in the presence of 5% CO2. A single aortic ring is placed on edge, with one of its two cut surfaces resting on the Matrigel®, at the center of each well using a sterile curved forcep. The layout of the culture plate is such that the rings from multiple animals are placed in a single column on the plate. In this fashion, the experimental results represent observations based on six animals (n=6). […]

How did the “degree of wound healing” value [1] turn out when `Cc1c(Cc2nc3c(F)c(F)cc(F)c3s2)c2ccccc2n1CC(=O)O` [Example 1, 2-methyl-3-(4,5,7-trifluorobenzothiazol-2-yl)methyl-indole-N-acetic acid] was run?
Its value is “significant increase in the degree of wound healing”.

What about the “Triglyceride lowering compared to diabetic” value [2] of the same compound?
Its value is 68%.

And the Blood glucose (diabetic (db/db) mice; 100 mg/kg/d in diet, Week 0, mean ± SD)?
Its Blood glucose is 323 ± 79 mg/dL.

And the Blood glucose (diabetic (db/db) mice; 100 mg/kg/d in diet, Week 2, mean ± SD)?
Its Blood glucose is 284 ± 75 mg/dL.

What about the Blood glucose (diabetic (db/db) mice; 100 mg/kg/d in diet, Week 4, mean ± SD) of the same compound?
Its Blood glucose is 303 ± 79 mg/dL.

And the “mean percent change in glucose (lowering)” value (diabetic (db/db) mice; 100 mg/kg/d)?
The value was 12%.

And the Blood glucose (diabetic (db/db) mice; 300 mg/kg/d in diet, Week 0, mean ± SD)?
Its Blood glucose is 313 ± 52 mg/dL.

What about the Blood glucose (diabetic (db/db) mice; 300 mg/kg/d in diet, Week 2, mean ± SD) of the same compound?
Its Blood glucose is 240 ± 85 mg/dL.

And the “mean percent change in glucose (lowering)” value (diabetic (db/db) mice; 300 mg/kg/d)?
Its value is 40%.

And the “Linear Microvascular Growth” value (rat aortic ring; Intervention (Days 4-6), compound only on days 4-6, mean ± SD)?
The value was 1.97 ± 0.66, n = 5 mm.

And the “Linear Microvascular Growth” value (rat aortic ring; Prevention (Days 1-6), 50 micromolar, mean ± SD)?
The value was 1.46 ± 0.48, n = 6 mm.

What about the “Linear Microvascular Growth” value (rat aortic ring; Removal: 50 micromolar days 1-3, compound removed days 4-6, mean ± SD) of the same compound?
Its value is 2.31 ± 0.71, n = 5 mm.

How did the IC50 [3] turn out when `O=C(O)Cn1cc(Cc2nc3ccc(F)cc3s2)c2ccccc21` [Example 24, 3-[6-Fluorbenzothiazole-2-yl]methyl-indole-N-acetic Acid] was run?
The IC50 was 1.04 µM.
